How the values were obtained:
[1] = system: FAP-expressing HEK293T:hFAP tumor xenografts; assay: Ex vivo biodistribution in HEK293T:hFAP tumor-bearing mice; conditions: 1 h post injection, mean ± SD, n = 4
Description: Biodistribution studies were also conducted at 1 h post injection with [^68Ga]Ga-AV01017, [^68Ga]Ga-AV01030, [^68Ga]Ga-AV01038, [^68Ga]Ga-HTK03041, and [^68Ga]Ga-FAPI-04 in HEK293T:hFAP tumor-bearing mice (Figure 6 and Table S5, Supplementary Materials). Tumor uptake values for [^68Ga]Ga-AV01017, [^68Ga]Ga-AV01030, [^68Ga]Ga-AV01038, [^68Ga]Ga-HTK03041, and [^68Ga]Ga-FAPI-04 were 2.99 ± 0.37, 3.69 ± 0.81, 3.64 ± 0.83, 0.62 ± 0.19, and 12.5 ± 2.00 %ID/g, respectively. There was a very low tumor uptake in mice injected with [^68Ga]Ga-HTK03041, showing very minimal FAP expression in this tumor model. The uptake levels of these tracers on the major organs and tissues are consistent with the trends observed in the LNCaP tumor-baring mice (Figure 5 and Supplemental Table S4).
(§1) Imaging and biodistribution studies were performed using male NOD.Cg-Rag1tm1Mom Il2rgtm1Wjl/SzJ (NRG) mice following previously published procedures. The experiments were conducted according to the guidelines established by the Canadian Council on Animal Care and approved by Animal Ethics Committee of the University of British Columbia. The mice were briefly sedated by inhalation of 2.5% isoflurane in oxygen, and 100 µL LNCaP (2 × 10^5 cells) or HEK293T:hFAP (8.5 × 10^6 cells) cells were inoculated subcutaneously behind the left shoulder. When the tumor grew to 5–8 mm in diameter over 3–4 weeks and 4–5 weeks for HEK293T:hFAP and LNCaP tumors, respectively, the mice were used for PET/CT imaging and biodistribution studies.
(§2) For biodistribution studies, the mice were injected with the radiotracer (~2–4 MBq) as described above. At 1 h post injection, the mice were euthanized by CO2 inhalation. Blood was withdrawn by cardiac puncture, and organs/tissues of interest were collected, weighed, and counted using a Perkin Elmer (Waltham, MA, USA) Wizard2 2480 automatic gamma counter.

[2] = system: PSMA-expressing LNCaP tumor xenografts; assay: Ex vivo biodistribution in LNCaP tumor-bearing mice; conditions: LNCaP tumor-bearing mice, 1 h post injection, mean ± SD, n = 4
Description: Biodistribution studies were conducted at 1 h post injection with ^68Ga-labeled AV01017, AV01030, AV01038, HTK03041, and FAPI-04 in LNCaP tumor-bearing mice (Figure 5 and Table S4, Supplementary Materials). The results were consistent with the observation from their PET images. Tumor uptake values for [^68Ga]Ga-AV01017, [^68Ga]Ga-AV01030, [^68Ga]Ga-AV01038, [^68Ga]Ga-HTK03041, and [^68Ga]Ga-FAPI-04 were 4.38 ± 0.55, 5.17 ± 0.51, 4.25 ± 0.86, 23.1 ± 6.11, and 3.15 ± 1.43 %ID/g, respectively. […] Although not statistically significant, the bispecific tracers with a longer linker tend to have a higher blood uptake value (9.24 ± 1.55 %ID/g for [^68Ga]Ga-AV01017; 7.07 ± 0.31%ID/g for [^68Ga]Ga-AV01038; 5.75 ± 0.59 %ID/g for [^68Ga]Ga-AV01030) and a lower tumor-to-blood ratio (0.48 ± 0.11 for [^68Ga]Ga-AV01017; 0.60 ± 0.13 for [^68Ga]Ga-AV01038; 0.89 ± 0.03 for [^68Ga]Ga-AV01030).
as §1, §2

## N#C[C@@H]1CC(F)(F)CN1C(=O)CNC(=O)c1ccnc2ccc(-c3cn(CC(=O)N[C@@H](CCCCNC(=O)CN4CCN(CC(=O)[O-])CCN(CC(=O)[O-])CCN(CC(=O)[O-])CC4)C(=O)NCC(=O)NC[C@H]4CC[C@H](C(=O)N[C@@H](Cc5c6ccccc6cc6ccccc56)C(=O)NCCCC[C@H](NC(=O)N[C@@H](CCC(=O)O)C(=O)O)C(=O)O)CC4)nn3)cc12.[68Ga+3] [[^68Ga]Ga-AV01030]
[1]
  Adrenal glands uptake: 3.15 ± 0.39 %ID/g
  Blood uptake: 5.68 ± 0.72 %ID/g
  Bone uptake: 3.59 ± 0.44 %ID/g
  Brain uptake: 0.12 ± 0.02 %ID/g
  Fat uptake: 0.63 ± 0.20 %ID/g
  HEK293T:hFAP tumor uptake: 3.69 ± 0.81 %ID/g
  Heart uptake: 2.20 ± 0.46 %ID/g
  Kidneys uptake: 30.0 ± 8.71 %ID/g
  Lacrimal gland uptake: 0.20 ± 0.24 %ID/g
  Large Intestine uptake: 1.15 ± 0.10 %ID/g
  Liver uptake: 1.51 ± 0.33 %ID/g
  Lungs uptake: 3.02 ± 0.25 %ID/g
  Muscle uptake: 1.78 ± 0.58 %ID/g
  Pancreas uptake: 3.26 ± 0.82 %ID/g
  Salivary glands uptake: 7.01 ± 2.25 %ID/g
  Small Intestine uptake: 1.23 ± 0.16 %ID/g
  Spleen uptake: 7.41 ± 1.75 %ID/g
  Stomach uptake: 0.42 ± 0.04 %ID/g
  Testes uptake: 0.66 ± 0.08 %ID/g
  Thyroid uptake: 7.70 ± 1.08 %ID/g
  Tumor/bone uptake ratio: 1.04 ± 0.31
  Tumor/muscle uptake ratio: 2.12 ± 0.30
[2]
  Adrenal glands uptake: 3.13 ± 1.25 %ID/g
  Blood uptake: 5.75 ± 0.59 %ID/g
  Bone uptake: 4.48 ± 0.59 %ID/g
  Brain uptake: 0.12 ± 0.01 %ID/g
  Fat uptake: 0.68 ± 0.12 %ID/g
  Heart uptake: 2.41 ± 0.13 %ID/g
  Kidneys uptake: 44.0 ± 2.42 %ID/g
  LNCaP tumor uptake: 5.17 ± 0.51 %ID/g
  Lacrimal glands uptake: 0.44 ± 0.68 %ID/g
  Large Intestine uptake: 1.32 ± 0.29 %ID/g
  Liver uptake: 1.43 ± 0.26 %ID/g
  Lungs uptake: 2.93 ± 0.28 %ID/g
  Muscle uptake: 1.59 ± 0.14 %ID/g
  Pancreas uptake: 3.63 ± 0.29 %ID/g
  Salivary glands uptake: 4.76 ± 1.79 %ID/g
  Seminal vesicle uptake: 1.04 ± 0.13 %ID/g
  Small Intestine uptake: 1.58 ± 0.13 %ID/g
  Spleen uptake: 6.50 ± 1.37 %ID/g
  Stomach uptake: 0.44 ± 0.07 %ID/g
  Testes uptake: 0.70 ± 0.08 %ID/g
  Thyroid uptake: 8.33 ± 0.41 %ID/g
  Tumor/blood uptake ratio: 0.89 ± 0.03
  Tumor/bone uptake ratio: 1.17 ± 0.26
  Tumor/kidney uptake ratio: 0.11 ± 0.00
  Tumor/muscle uptake ratio: 3.25 ± 0.39

## N#C[C@@H]1CC(F)(F)CN1C(=O)CNC(=O)c1ccnc2ccc(OCCCN3CCN(C(=O)CN4CCN(CC(=O)[O-])CCN(CC(=O)[O-])CCN(CC(=O)[O-])CC4)CC3)cc12.[68Ga+3] [[^68Ga]Ga-FAPI-04, reference compound]
[1]
  Adrenal glands uptake: 1.07 ± 0.32 %ID/g
  Blood uptake: 1.07 ± 0.08 %ID/g
  Bone uptake: 3.36 ± 1.09 %ID/g
  Brain uptake: 0.04 ± 0.00 %ID/g
  Fat uptake: 0.10 ± 0.01 %ID/g
  HEK293T:hFAP tumor uptake: 12.5 ± 2.00 %ID/g
  Heart uptake: 0.34 ± 0.04 %ID/g
  Kidneys uptake: 1.83 ± 0.16 %ID/g
  Liver uptake: 0.36 ± 0.02 %ID/g
  Lungs uptake: 0.74 ± 0.11 %ID/g
  Muscle uptake: 0.67 ± 0.05 %ID/g
  Pancreas uptake: 0.37 ± 0.05 %ID/g
  Seminal vesicle uptake: 0.15 ± 0.04 %ID/g
  Small Intestine uptake: 0.36 ± 0.08 %ID/g
  Spleen uptake: 0.56 ± 0.11 %ID/g
  Stomach uptake: 0.07 ± 0.01 %ID/g
  Testes uptake: 0.28 ± 0.04 %ID/g
  Tumor/blood uptake ratio: 11.7 ± 2.04
  Tumor/bone uptake ratio: 3.93 ± 1.16
  Tumor/kidney uptake ratio: 6.85 ± 1.33
  Tumor/muscle uptake ratio: 18.8 ± 4.09
[2]
  Adrenal glands uptake: 2.16 ± 1.08 %ID/g
  Blood uptake: 2.16 ± 0.33 %ID/g
  Bone uptake: 4.27 ± 0.74 %ID/g
  Brain uptake: 0.06 ± 0.00 %ID/g
  Fat uptake: 0.55 ± 0.47 %ID/g
  Heart uptake: 0.70 ± 0.04 %ID/g
  Kidneys uptake: 2.36 ± 0.38 %ID/g
  LNCaP tumor uptake: 3.15 ± 1.43 %ID/g
  Lacrimal glands uptake: 0.06 ± 0.07 %ID/g
  Large Intestine uptake: 0.73 ± 0.09 %ID/g
  Liver uptake: 0.76 ± 0.08 %ID/g
  Lungs uptake: 1.23 ± 0.07 %ID/g
  Muscle uptake: 1.04 ± 0.20 %ID/g
  Pancreas uptake: 0.99 ± 0.25 %ID/g
  Salivary glands uptake: 1.36 ± 0.92 %ID/g
  Seminal vesicle uptake: 3.72 ± 5.09 %ID/g
  Small Intestine uptake: 0.74 ± 0.12 %ID/g
  Spleen uptake: 0.67 ± 0.11 %ID/g
  Stomach uptake: 0.26 ± 0.04 %ID/g
  Testes uptake: 0.42 ± 0.04 %ID/g
  Thyroid uptake: 3.62 ± 1.01 %ID/g
  Tumor/blood uptake ratio: 1.04 ± 0.42
  Tumor/bone uptake ratio: 0.51 ± 0.28
  Tumor/kidney uptake ratio: 0.90 ± 0.28
  Tumor/muscle uptake ratio: 2.30 ± 0.79

— publication PMC9921851, “Synthesis and Preclinical Evaluation of Three Novel ^68Ga-Labeled Bispecific PSMA/FAP-Targeting Tracers for Prostate Cancer Imaging” (Molecules, 2023)
